Patent publication US9242996B2 (Novartis AG, priority 2013, dated 2016)
pIC50: −log10 of the molar value.

The compounds below were run against activated ERK2 (Homo sapiens (Human), UniProt P28482) (assay: Activated ERK2 (20 pM) Kinase Assay (AlphaScreen, ERKtide phosphorylation)). Conditions: 0.02 nM ERK2, 400 nM ERKtide peptide, 35 μM ATP, 30 min preincubation.
Chain of activated ERK2 (P28482 whole entry): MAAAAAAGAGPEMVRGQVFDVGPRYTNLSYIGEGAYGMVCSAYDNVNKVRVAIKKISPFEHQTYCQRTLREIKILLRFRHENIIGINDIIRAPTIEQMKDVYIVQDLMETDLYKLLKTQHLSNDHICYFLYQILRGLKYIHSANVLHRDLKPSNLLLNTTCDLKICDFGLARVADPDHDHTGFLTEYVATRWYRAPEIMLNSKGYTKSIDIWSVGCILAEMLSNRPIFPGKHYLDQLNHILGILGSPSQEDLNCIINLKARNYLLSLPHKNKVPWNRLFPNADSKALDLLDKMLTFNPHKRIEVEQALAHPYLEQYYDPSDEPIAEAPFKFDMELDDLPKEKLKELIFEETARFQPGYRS
Format: biochemical
Procedure, shortened: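 Activated human ERK2 (0.02 nM) preincubated 30 min with compounds, then 400 nM ERKtide and 35 μM ATP added for 4 h at ambient temperature in HEPES pH 7.5, MgCl2, DTT, Tween-20, BSA. EDTA stop; phospho-peptide read by AlphaScreen after overnight dark incubation; four-parameter IC50.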
Compound `CNC[C@@H](NC(=O)c1ccc(-c2nc([C@H]3CC[C@H](O)CC3)cnc2N)cc1F)c1cccc(Cl)c1` [Example 401, 4-(3-amino-6-((1r,4S)-4-hydroxy-cyclohexyl)pyrazin-2-yl)-N-((S)-1-(3-chlorophenyl)-2-(methylamino)ethyl)-2-fluorobenzamide] has a pIC50 of 10.33.
Compound `[N-]=[N+]=NC[C@@H](NC(=O)c1ccc(-c2nc(C3CCOCC3)cnc2N)cc1F)c1cccc(Cl)c1` [Example 404, (S)-4-(3-amino-6-(tetrahydro-2H-pyran-4-yl)pyrazin-2-yl)-N-(2-azido-1-(3-chlorophenyl)ethyl)-2-fluorobenzamide] has a pIC50 of 9.94.
`CC(=O)NC[C@@H](NC(=O)c1ccc(-c2nc([C@H]3CC[C@H](O)CC3)cnc2N)cc1F)c1cccc(Cl)c1` [Example 405, N-((S)-2-acetamido-1-(3-chlorophenyl)ethyl)-4-(3-amino-6-((1r,4S)-4-hydroxy-cyclohexyl)pyrazin-2-yl)-2-fluorobenzamide] showed a pIC50 of 9.62.
`CO[C@H]1CC[C@H](c2cnc(N)c(-c3ccc(C(=O)N[C@H](CNC(C)=O)c4cccc(Cl)c4)c(F)c3)n2)CC1` [Example 406, N-((S)-2-acetamido-1-(3-chlorophenyl)ethyl)-4-(3-amino-6-((1r,4S)-4-methoxy-cyclohexyl)pyrazin-2-yl)-2-fluorobenzamide] showed a pIC50 of 9.60.
For `COC(=O)NC[C@@H](NC(=O)c1ccc(-c2nc(C3CCOCC3)cnc2N)cc1F)c1cccc(Cl)c1` [Example 407, (S)-methyl (2-(4-(3-amino-6-(tetrahydro-2H-pyran-4-yl)pyrazin-2-yl)-2-fluoro-benzamido)-2-(3-chlorophenyl)ethyl)carbamate], the pIC50 was 9.48.
`CC(=O)NC[C@@H](NC(=O)c1ccc(-c2nc(C3CCOCC3)cnc2N)cc1F)c1cc(F)cc(Br)c1` [Example 408, (S)-N-(2-acetamido-1-(3-bromo-5-fluorophenyl)ethyl)-4-(3-amino-6-(tetrahydro-2H-pyran-4-yl)pyrazin-2-yl)-2-fluorobenzamide] showed a pIC50 of 10.70.
With `COC(=O)NC[C@@H](NC(=O)c1ccc(-c2nc(C3CCOCC3)cnc2N)cc1F)c1cccc(Br)c1` [Example 409, (S)-methyl (2-(4-(3-amino-6-(tetrahydro-2H-pyran-4-yl)pyrazin-2-yl)-2-fluoro-benzamido)-2-(3-bromophenyl)ethyl)carbamate] the pIC50 was 9.65.
In the case of `COC(=O)NC[C@@H](NC(=O)c1ccc(-c2nc(C3CCOCC3)cnc2N)cc1F)c1cc(F)cc(Br)c1` [Example 410, (S)-methyl (2-(4-(3-amino-6-(tetrahydro-2H-pyran-4-yl)pyrazin-2-yl)-2-fluoro-benzamido)-2-(3-bromo-5-fluorophenyl)ethyl) carbamate], the pIC50 was 10.03.
In the case of `Nc1ncc(C2CCOCC2)nc1-c1ccc(C(=O)N[C@H](CNCCF)c2cc(F)cc(Br)c2)c(F)c1` [Example 411, (S)-4-(3-amino-6-(tetrahydro-2H-pyran-4-yl)pyrazin-2-yl)-N-(1-(3-bromo-5-fluorophenyl)-2-((2-fluoroethyl)amino)ethyl)-2-fluorobenzamide], the pIC50 was 10.13.
With `Nc1ncc([C@H]2CC[C@H](O)CC2)nc1-c1ccc(C(=O)N[C@H](CNCCF)c2cc(F)cc(Br)c2)c(F)c1` [Example 412, 4-(3-amino-6-((1r,4S)-4-hydroxy-cyclohexyl)pyrazin-2-yl)-N-((S)-1-(3-bromo-5-fluorophenyl)-2-((2-fluoroethyl)amino)ethyl)-2-fluorobenzamide] the pIC50 was 9.43.
`NC[C@@H](NC(=O)c1ccc(-c2nc(C3CCOCC3)cnc2N)cc1F)c1cccc(Br)c1` [Example 414, (S)-N-(2-amino-1-(3-bromophenyl)ethyl)-4-(3-amino-6-(tetrahydro-2H-pyran-4-yl)pyrazin-2-yl)-2-fluorobenzamide] showed a pIC50 of 10.70.
In the case of `Nc1ncc(C2CCC(F)(F)CC2)nc1-c1ccc(C(=O)N[C@H](CO)c2cccc(Cl)c2)c(F)c1` [Example 435, (S)-4-(3-amino-6-(4,4-difluoro-cyclohexyl)pyrazin-2-yl)-N-(1-(3-chlorophenyl)-2-hydroxyethyl)-2-fluorobenzamide], the pIC50 was 9.98.
For `Nc1ncc([C@H]2CC[C@H](O)CC2)nc1-c1ccc(C(=O)N[C@H](CO)c2cccc(Br)c2)c(F)c1` [Example 436, 4-(3-amino-6-((1r,4S)-4-hydroxy-cyclohexyl)pyrazin-2-yl)-N-((S)-1-(3-bromophenyl)-2-hydroxyethyl)-2-fluorobenzamide], the pIC50 was 10.31.
`Nc1ncc([C@H]2CC[C@@H](O)CC2)cc1-c1ccc(C(=O)N[C@H](CO)c2cccc(Cl)c2)c(F)c1` [Example 440, 4-(2-amino-5-((1s,4R)-4-hydroxy-cyclohexyl)pyridin-3-yl)-N-((S)-1-(3-chlorophenyl)-2-hydroxyethyl)-2-fluorobenzamide] showed a pIC50 of 10.15.
Compound `COC(=O)N[C@H]1CC[C@H](c2cnc(N)c(-c3ccc(C(=O)N[C@H](CO)c4cc(F)cc(Br)c4)c(F)c3)n2)CC1` [Example 441, Methyl ((1S,4r)-4-(5-amino-6-(4-(((S)-1-(3-bromo-5-fluorophenyl)-2-hydroxyethyl)carbamoyl)-3-fluorophenyl)pyrazin-2-yl)cyclohexyl) carbamate] has a pIC50 of 10.25.
In the case of `Nc1ncc([C@H]2CC[C@H](O)CC2)cc1-c1ccc(C(=O)N[C@H](CO)c2cccc(Cl)c2)c(F)c1` [Example 442, 4-(2-amino-5-((1r,4S)-4-hydroxy-cyclohexyl)pyridin-3-yl)-N-((S)-1-(3-chlorophenyl)-2-hydroxyethyl)-2-fluorobenzamide], the pIC50 was 9.47.
`C[C@@H](NC(=O)c1ccc(-c2cc([C@H]3CC[C@H](O)CC3)cnc2N)cc1F)c1cc(F)cc(S(C)(=O)=O)c1` [Example 443, 4-(2-amino-5-((1r,4R)-4-hydroxy-cyclohexyl)pyridin-3-yl)-2-fluoro-N-((R)-1-(3-fluoro-5-(methylsulfonyl)phenyl)ethyl) benzamide] gave a pIC50 of 9.46.
In the case of `Nc1ncc([C@H]2CC[C@@H](F)CC2)nc1-c1ccc(C(=O)N[C@H](CO)c2cccc(Cl)c2)c(F)c1` [Example 448, 4-(3-amino-6-((1s,4R)-4-fluorocyclohexyl)pyrazin-2-yl)-N-((S)-1-(3-chlorophenyl)-2-hydroxyethyl)-2-fluorobenzamide], the pIC50 was 9.43.
In the case of `Nc1ncc([C@H]2CC[C@H](F)CC2)nc1-c1ccc(C(=O)N[C@H](CO)c2cccc(Cl)c2)c(F)c1` [Example 449, 4-(3-amino-6-((1r,4S)-4-fluorocyclohexyl)pyrazin-2-yl)-N-((S)-1-(3-chlorophenyl)-2-hydroxyethyl)-2-fluorobenzamide], the pIC50 was 9.74.
In the case of `N#CC1CCC(c2cnc(N)c(-c3ccc(C(=O)N[C@H](CO)c4cc(F)cc(Br)c4)c(F)c3)n2)CC1` (stereo partly drawn) [Example 450, (S)-4-(3-amino-6-(4-cyanocyclohexyl)pyrazin-2-yl)-N-(1-(3-bromo-5-fluorophenyl)-2-hydroxyethyl)-2-fluorobenzamide], the pIC50 was 8.82.
`N#CC1CCC(c2cnc(N)c(-c3ccc(C(=O)N[C@H](CO)c4cc(F)cc(Br)c4)c(F)c3)n2)CC1` (stereo partly drawn) [Example 451, (S)-4-(3-amino-6-(4-cyanocyclohexyl)pyrazin-2-yl)-N-(1-(3-bromo-5-fluorophenyl)-2-hydroxyethyl)-2-fluorobenzamide] was tested, and the pIC50 was 10.35.
Compound `CNC[C@@H](NC(=O)c1ccc(-c2nc([C@H]3CC[C@H](O)C(F)(F)C3)cnc2N)cc1F)c1cc(F)cc(Br)c1` [Example 458] has a pIC50 of 10.08.
In the case of `Nc1ncc([C@@H]2CC[C@@H](O)C(F)(F)C2)nc1-c1ccc(C(=O)N[C@H](CO)c2cc(F)cc(Br)c2)c(F)c1` [Example 459, 4-(3-amino-6-((1R,4R)-3,3-difluoro-4-hydroxy-cyclohexyl)pyrazin-2-yl)-2-fluoro-N-((S)-1-(3-fluoro-5-bromophenyl)-2-hydroxyethyl) benzamide], the pIC50 was 10.58.
`Nc1ncc([C@H]2CC[C@H](O)C(F)(F)C2)nc1-c1ccc(C(=O)N[C@H](CO)c2cc(F)cc(Br)c2)c(F)c1` [Example 460, 4-(3-amino-6-((1S,4S)-3,3-difluoro-4-hydroxy-cyclohexyl)pyrazin-2-yl)-2-fluoro-N-((S)-1-(3-fluoro-5-bromophenyl)-2-hydroxyethyl) benzamide] gave a pIC50 of 10.40.
`Nc1ncc([C@@H]2CC[C@@H](O)[C@H](O)C2)nc1-c1ccc(C(=O)N[C@H](CO)c2cc(F)cc(I)c2)c(F)c1` [Example 461, 4-(3-amino-6-((1R,3R,4R)-3,4-dihydroxy-cyclohexyl)pyrazin-2-yl)-2-fluoro-N-((S)-1-(3-fluoro-5-iodophenyl)-2-hydroxyethyl) benzamide] showed a pIC50 of 11.37.
`Nc1ncc([C@@H]2CC[C@H](O)[C@H](O)C2)nc1-c1ccc(C(=O)N[C@H](CO)c2cc(F)cc(I)c2)c(F)c1` [Example 462, 4-(3-amino-6-((1R,3R,4S)-3,4-dihydroxy-cyclohexyl)pyrazin-2-yl)-2-fluoro-N-((S)-1-(3-fluoro-5-iodophenyl)-2-hydroxyethyl) benzamide] showed a pIC50 of 9.87.
`Nc1ncc([C@H]2CC[C@H](O)[C@@H](O)C2)nc1-c1ccc(C(=O)N[C@H](CO)c2cc(F)cc(I)c2)c(F)c1` [Example 463, 4-(3-amino-6-((1S,3S,4S)-3,4-dihydroxy-cyclohexyl)pyrazin-2-yl)-2-fluoro-N-((S)-1-(3-fluoro-5-iodophenyl)-2-hydroxyethyl) benzamide] gave a pIC50 of 11.26.
`Nc1ncc([C@H]2CC[C@@H](O)[C@@H](O)C2)nc1-c1ccc(C(=O)N[C@H](CO)c2cc(F)cc(I)c2)c(F)c1` [Example 464, 4-(3-amino-6-((1S,3S,4R)-3,4-dihydroxy-cyclohexyl)pyrazin-2-yl)-2-fluoro-N-((S)-1-(3-fluoro-5-iodophenyl)-2-hydroxyethyl) benzamide] gave a pIC50 of 9.86.
`Nc1ncc([C@@H]2CC[C@@H](O)[C@H](O)C2)nc1-c1ccc(C(=O)N[C@H](CO)c2cc(F)cc(Br)c2)c(F)c1` [Example 465, 4-(3-amino-6-((1R,3R,4R)-3,4-dihydroxy-cyclohexyl)pyrazin-2-yl)-2-fluoro-N-((S)-1-(3-fluoro-5-bromophenyl)-2-hydroxyethyl) benzamide] showed a pIC50 of 10.73.
